From US20120003308A1, “Pharmaceutical Composition Comprising Aliskiren” (priority 2009, published 2012) come the findings set out here.

Molecules are shown by their SMILES.

The series can be described thus: Bioequivalence study of fixed combination versus free combination, single dose, crossover. Details: species or system human. The conditions noted are these: in vivo. As for the experimental part: Pharmacokinetic measurements were performed on blood collected from each subject. […] The PK parameters were determined in plasma, using non-compartmental methods.

In the case of `CCCCC(=O)N(Cc1ccc(-c2ccccc2-c2nnn[nH]2)cc1)[C@H](C(=O)O)C(C)C` [Valsartan], the “intra-subject CV for AUC0-flast of valsartan” value is recorded as 28.56%, the “intra-subject CV for AUC0-inf of valsartan” value was 28.33% and the “intra-subject CV for Cmax of valsartan” value was 40.37%.

Turning to `COCCCOc1cc(C[C@@H](C[C@H](N)[C@@H](O)C[C@H](C(=O)NCC(C)(C)C(N)=O)C(C)C)C(C)C)ccc1OC` [Aliskiren, 2(S),4(S),5(S),7(S)—N-(3-amino-2,2-dimethyl-3-oxopropyl)-2,7-di(1-methylethyl)-4-hydroxy-5-amino-8-[4-methoxy-3-(3-methoxy-propoxy)phenyl]-octanamide], the “intra-subject coefficient of variation (CV) for AUC0-inf of aliskiren” value stood at 33.19%, the “intra-subject coefficient of variation (CV) for AUC0-tlast of aliskiren” value was determined as 33.98% and the “intra-subject coefficient of variation (CV) for Cmax of aliskiren” value is listed as 51.90%.
